Results reported in patent publication EP0321100A2, “Piperazine derivatives, their acid addition salts and a process for the preparation of same” (SPOFA spojené podniky pro zdravotnickou vyrobu, priority 1987, dated 1989).
Like-named read-outs stand apart in the source and are kept apart here.

What was measured:
[1] = in vivo; settings: mouse, po
[2] = target: T1, dopamine D-2 receptors in the rat brain striatum (Rattus norvegicus, UniProt P61169); assay: Inhibition of binding of 3H-spiperone to dopamine D-2 receptors; settings: inhibition of binding of 0.5 nM ³H-spiperone, read-out: medium inhibitory concentration IC₅₀
T1 construct: dopamine D-2 receptors in the rat brain striatum; from tissue; host or cells: rat brain striatum
T1 sequence (P61169 whole entry): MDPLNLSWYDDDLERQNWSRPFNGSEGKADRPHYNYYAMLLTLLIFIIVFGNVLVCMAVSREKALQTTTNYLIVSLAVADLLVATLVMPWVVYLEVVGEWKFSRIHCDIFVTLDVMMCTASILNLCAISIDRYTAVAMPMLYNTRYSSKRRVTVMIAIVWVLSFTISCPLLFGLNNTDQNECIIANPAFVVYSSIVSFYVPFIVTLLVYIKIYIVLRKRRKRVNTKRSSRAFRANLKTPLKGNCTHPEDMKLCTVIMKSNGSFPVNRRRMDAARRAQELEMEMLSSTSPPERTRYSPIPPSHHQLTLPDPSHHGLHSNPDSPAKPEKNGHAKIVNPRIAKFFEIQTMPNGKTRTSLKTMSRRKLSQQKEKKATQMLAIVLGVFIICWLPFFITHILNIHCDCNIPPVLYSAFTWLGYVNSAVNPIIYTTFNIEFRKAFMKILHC

[3] = Depot neuroleptic evaluation (method not described); type: in vivo; settings: solution of the base (375 mg/ml) in Miglyol 812
From the text: 2-{4-[2-(2-Chloro-10,11-dihydrodibenzo(b,f)thiepin-10-yloxy)ethyl]piperazin 1-yl} ethanol (compound I-A); succinate 3-{4-[2-(2-Chloro-10,11-dihydrodibenzo(b,f)thiepin-10-yloxy)ethyl]piperazin-1-yl} propanol (I-B); bis(hydrogensuccinate) 1-[2-(2-Chloro-10,11-dihydrodibenzo(b,f)thiepin-10-yloxy)ethyl]-4-methylpiperazine (I-C); bis(hydrogensuccinate) 1-[2-(2-Chloro-10,11-dihydrodibenzo(b,f)thiepin-10-yloxy)ethyl]piperazine (I-D); succinate 2-{4-[2-(2-Chloro-10,11-dihydrodibenzo(b,f)thiepin-10-yloxy)ethyl]piperazin-1-yl} ethyl acetate (I-E); bis(hydrogensuccinate) 2-{4-[2-(2-Chloro 10,11-dihydrodibenzo(b,f)thiepin-10-yloxy)ethyl]piperazin-1-yl} ethyl decanoate (I-F); tested as a solution of the base (375 mg/ml) in Miglyol 812 (Trade Mark).

[4] = system: dopamine turnover and metabolism in rat brain striatum; assay: Antidopaminergic activity: effect on dopamine turnover and metabolism (homovanillic acid level) in rat brain; type: in vivo; settings: for increase in the concentration of homovanillic acid (% concentration of the metabolite in comparison with the control taken for 100 %): rat brain striatum, oral 80 mg/kg dose; for minimal effective dose: Rattus norvegicus, po, read-out: threshold dose which significantly increased homovanillic acid level
[5] = system: apomorphine-induced emesis in dogs; assay: Inhibition of apomorphine-induced emesis in dogs; type: in vivo; settings: 10 mg/kg, interval of 4 hours after administration
[6] = Anticholinergic activity in vivo
[7] = Anticholinergic activity in vitro
[8] = system: spontaneous locomotor activity in mice; assay: Inhibition of spontaneous locomotor activity in mice, photocell method after Dews; type: in vivo; settings: Mus musculus, oral, read-out: medium inhibitory dose D₅₀
[9] = in vivo; parameters: species or system mice; settings: mouse, po
Procedure: (§1) Discoordinating effect (rota-rod test in mice), medium effective dose ED₅₀ 44.0 mg/kg, is still […] than for thioridazine (Taeschler M., Cerletti A., Schweiz.Med. Wochschr. 88, 1216, 1958); this is advantageous. […] Adrenolytic activity in mice is very low: an oral dose as high as 100 mg/kg prevents adrenaline-induced lethality in 20 % of the animals.

[10] = system: adrenaline-induced lethality; assay: Adrenolytic activity in mice (adrenaline-induced lethality); type: in vivo; settings: oral dose 100 mg/kg
Procedure: as §1

[11] = system: Maccacus rhesus monkeys; settings: rhesus monkey, in vivo, po, 10 mg/kg
[12] = target: T2, dopamine D-1 receptors in rat striatum (Rattus norvegicus, UniProt P18901); assay: Affinity to dopamine D-1 receptors; type: binding
T2 construct: dopamine D-1 receptors in rat striatum; from tissue; host or cells: rat striatum
T2 sequence (P18901 whole entry): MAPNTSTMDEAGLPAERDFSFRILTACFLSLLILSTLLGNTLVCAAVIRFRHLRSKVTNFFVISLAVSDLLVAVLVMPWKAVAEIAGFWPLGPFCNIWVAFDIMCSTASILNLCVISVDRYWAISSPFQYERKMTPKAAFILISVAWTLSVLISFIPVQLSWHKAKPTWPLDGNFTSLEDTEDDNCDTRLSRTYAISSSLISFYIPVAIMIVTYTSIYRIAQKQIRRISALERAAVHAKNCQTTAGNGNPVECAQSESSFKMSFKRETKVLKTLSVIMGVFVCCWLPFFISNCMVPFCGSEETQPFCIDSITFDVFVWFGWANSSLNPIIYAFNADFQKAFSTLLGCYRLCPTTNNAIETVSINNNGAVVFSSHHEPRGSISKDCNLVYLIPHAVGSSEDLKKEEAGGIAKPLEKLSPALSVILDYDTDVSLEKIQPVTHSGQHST

[13] = system: re-uptake of serotonin; assay: Inhibition of re-uptake of serotonin in rat brain; type: biochemical
[14] = system: re-uptake of noradrenaline; assay: Inhibition of re-uptake of noradrenaline in rat brain; type: biochemical
[15] = system: mice; settings: reference compound, for comparison, literature citation given; cited from earlier work

Q: For `OCCCN1CCN(CCOC2Cc3cc(Cl)ccc3Sc3ccccc32)CC1` (centres unmarked) [I-B, 3-{4-[2-(2-Chloro-10,11-dihydrodibenzo(b,f)thiepin-10-yloxy)ethyl]piperazin-1-yl} propanol], which LD50 [1] is on record?
A: 618 mg/kg

Q: What about the IC50 [2] of the same compound?
A: 350 nM

Q: With `CCCCCCCCCC(=O)OCCN1CCN(CCOC2Cc3cc(Cl)ccc3Sc3ccccc32)CC1` (racemic) [I-F, 2-{4-[2-(2 Chloro-10,11-dihydrodibenzo(b,f)thiepin-10-yloxy)ethyl]piperazin-1-yl} ethyl decanoate] as the compound, how does the “duration of neuroleptic action” value [3] read?
A: substantially prolonged action

Q: With `CC(=O)OCCN1CCN(CCOC2Cc3cc(Cl)ccc3Sc3ccccc32)CC1` (racemic) [I-E, 2-{4-[2-(2-Chloro-10,11-dihydrodibenzo(b,f)thiepin-10-yloxy)ethyl]piperazin-1-yl} ethyl acetate] as the compound, how does the LD50 [1] read?
A: 691 mg/kg

Q: And the IC50 [2]?
A: 219 nM

Q: And the “increase in the concentration of homovanillic acid (% concentration of the metabolite in comparison with the control taken for 100 %)” value [4]?
A: 244%

Q: With `Clc1ccc2c(c1)CC(OCCN1CCNCC1)c1ccccc1S2` (centres unmarked) [I-D, 1-[2-(2-Chloro-10,11-dihydrodibenzo(b,f)thiepin-10-yloxy)ethyl]piperazine] as the compound, how does the LD50 [1] read?
A: 509 mg/kg

Q: What about the IC50 [2] of the same compound?
A: 1000 nM

Q: Which “inhibition of apomorphine-induced emesis” value [5] does the source give for `OCCN1CCN(CCOC2Cc3cc(Cl)ccc3Sc3ccccc32)CC1` (centres unmarked) [I-A, 2-{4-[2-(2-Chloro-10,11-dihydrodibenzo(b,f)thiepin-10-yloxy)ethyl]piperazin-1-yl} ethanol] here?
A: inhibitory effect

Q: What about the anticholinergic activity [6] of the same compound?
A: very low

Q: And the anticholinergic activity [7]?
A: very low

Q: What about the ED50 [8] of the same compound?
A: 15.7 mg/kg

Q: What about the LD50 [1] of the same compound?
A: 346 mg/kg

Q: And the TD50 [9]?
A: 44 mg/kg

Q: What about the “prevention of adrenaline-induced lethality, share of the animals” value [10] of the same compound?
A: 20%

Q: What about the IC50 [2] of the same compound?
A: 212 nM

Q: And the blood pressure [11]?
A: do not affect

Q: What about the “general behaviour of the animals” value [11] of the same compound?
A: do not affect

Q: What about the “heart rhythm (pulse rate)” value [11] of the same compound?
A: do not affect

Q: And the “affinity to dopamine D-1 receptors” value [12]?
A: slight affinity

Q: And the minimal effective dose ([4]; corpus striatum)?
A: 20 mg/kg

Q: What about the minimal effective dose ([4]; tuberculum olfactorium) of the same compound?
A: 10 mg/kg

Q: What about the “increase in the concentration of homovanillic acid (% concentration of the metabolite in comparison with the control taken for 100 %)” value [4] of the same compound?
A: 504%

Q: And the “inhibition of re-uptake of serotonin” value [13]?
A: weak inhibitor

Q: And the “inhibition of re-uptake of noradrenaline” value [14]?
A: weak inhibitor

Q: With `CN1CCN(CCOC2Cc3cc(Cl)ccc3Sc3ccccc32)CC1` (centres unmarked) [I-C, 1-[2-(2-Chloro-10,11-dihydrodibenzo(b,f)thiepin-10-yloxy)ethyl]-4-methylpiperazine] as the compound, how does the LD50 [1] read?
A: 401 mg/kg

Q: What about the IC50 [2] of the same compound?
A: 264 nM

Q: With `CN1CCN(C2=Nc3cc(Cl)ccc3Nc3ccccc32)CC1` [clozapine, reference compound] as the compound, how does the “acute toxicity, LD₅₀” value [15] read?
A: 199 mg/kg

Q: What about the ED50 [8] of the same compound?
A: 1.05 mg/kg
